Measured values from patent US20200187502A1, “MICROBIOCIDAL OXADIAZOLE DERIVATIVES” (SYNGENTA PARTICIPATIONS AG, priority 2017, published 2020).

How the values were obtained:
[1] = test system: Puccinia recondita f. Sp. Tritici; test: Fungicidal activity, wheat leaf disc preventative (brown rust); assay type: in vivo; settings: foliar, 200 ppm in the applied formulation, wheat leaf segments cv. Kanzler, compared to untreated control, 7 to 9 days after application, read-out: disease control
Summary of the method: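 Preventative leaf-segment test: spray application of diluted formulated compound on wheat cv. Kanzler, spore inoculation after 1 day. Percent control relative to untreated segments rated 7 to 9 days post-application, with incubation at 19° C, 75% relative humidity, 12 h photoperiod.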

[2] = test system: Puccinia recondita f. Sp. Tritici; test: Fungicidal activity, wheat leaf disc curative (brown rust); assay type: in vivo; settings: foliar, 200 ppm in the applied formulation, wheat leaf segments cv. Kanzler, curative (applied 1 day after inoculation), compared to untreated control, 6 to 8 days after application, read-out: disease control
Description: Leaf disks or leaf segments of various plant species are cut from plants grown in a greenhouse. The cut leaf disks or segments are placed in multiwell plates (24-well format) onto water agar. The leaf disks are sprayed with a test solution before (preventative) or after (curative) inoculation. Compounds to be tested are prepared as DMSO solutions (max. 10 mg/ml) which are diluted to the appropriate concentration with 0.025% Tween20 just before spraying. The inoculated leaf disks or segments are incubated under defined conditions (temperature, relative humidity, light, etc.) according to the respective test system. A single evaluation of disease level is carried out 3 to 14 days after inoculation, depending on the pathosystem. Percent disease control relative to the untreated check leaf disks or segments is then calculated.
Wheat leaf segments cv. Kanzler are placed on agar in multiwell plates (24-well format). The leaf segments are then inoculated with a spore suspension of the fungus. Plates were stored in darkness at 19° C. and 75% relative humidity. The formulated test compound diluted in water was applied 1 day after inoculation. The leaf segments were incubated at 19° C. and 75% relative humidity under a light regime of 12 hours light/12 hours darkness in a climate cabinet and the activity of a compound was assessed as percent disease control compared to untreated when an appropriate level of disease damage appears in untreated check leaf segments (6 to 8 days after application).
The following compounds at 200 ppm in the applied formulation give at least 80% disease control in this test when compared to untreated control leaf disks under the same conditions, which show extensive disease development.

[3] = test system: Glomerella lacenarium (Colletotrichum lacenarium); test: Fungicidal activity, liquid culture, cucumber preventative (anthracnose); assay type: cell-based; settings: 20 ppm in the applied formulation, liquid culture in PDB, inhibition of growth measured photometrically 3 to 4 days after application, compared to untreated control, read-out: disease control
Summary of the method: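 Spore-based broth assay: conidia mixed into PDB meet compound from a DMSO solution in 96-well format, incubate at 24° C., then inhibition of growth is determined by photometry 3–4 days later relative to the untreated check.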

O=C(C1CC1(F)F)N(Cc1ccc(-c2noc(C(F)(F)F)n2)s1)C1CC1 (stereo not drawn) [Compound 5.42, N-cyclopropyl-2,2-difluoro-N-[[5-[5-(trifluoromethyl)-1,2,4-oxadiazol-3-yl]-2-thienyl]methyl]cyclopropanecarboxamide]
≥ 80%: pest or weed control at 200 ppm [1] | pest or weed control at 200 ppm [2] | inhibition of growth at 20 ppm [3]

CC(=O)C(=O)N(Cc1ccc(-c2noc(C(F)(F)F)n2)s1)C1CC1 [Compound 6.11, N-cyclopropyl-2-oxo-N-[[5-[5-(trifluoromethyl)-1,2,4-oxadiazol-3-yl]-2-thienyl]methyl]propanamide]
≥ 80%: pest or weed control at 200 ppm [1] | pest or weed control at 200 ppm [2] | inhibition of growth at 20 ppm [3]

CNC(=O)N(OC)C(C)c1ccc(-c2noc(C(F)(F)F)n2)s1 (stereo not drawn) [Compound 1.50, 1-methoxy-3-methyl-1-[1-[5-[5-(trifluoromethyl)-1,2,4-oxadiazol-3-yl]-2-thienyl]ethyl]urea]
≥ 80%: pest or weed control at 200 ppm [1] | pest or weed control at 200 ppm [2] | inhibition of growth at 20 ppm [3]

N#CCC(=O)N(Cc1ccc(-c2noc(C(F)(F)F)n2)s1)C1CC1 [Compound 4.59, 2-cyano-N-cyclopropyl-N-[[5-[5-(trifluoromethyl)-1,2,4-oxadiazol-3-yl]-2-thienyl]methyl]acetamide]
≥ 80%: pest or weed control at 200 ppm [1] | pest or weed control at 200 ppm [2] | inhibition of growth at 20 ppm [3]

CC(C)C(=O)N(Cc1ccc(-c2noc(C(F)(F)F)n2)s1)C(C)C [Compound 4.11, N-isopropyl-2-methyl-N-[[5-[5-(trifluoromethyl)-1,2,4-oxadiazol-3-yl]-2-thienyl]methyl]propanamide]
≥ 80%: pest or weed control at 200 ppm [1] | pest or weed control at 200 ppm [2] | inhibition of growth at 20 ppm [3]

COCCN(CCOC)C(=O)N(Cc1ccc(-c2noc(C(F)(F)F)n2)s1)C1CC1 [Compound 4.91, 1-cyclopropyl-3,3-bis(2-methoxyethyl)-1-[[5-[5-(trifluoromethyl)-1,2,4-oxadiazol-3-yl]-2-thienyl]methyl]urea]
≥ 80%: pest or weed control at 200 ppm [1] | pest or weed control at 200 ppm [2] | inhibition of growth at 20 ppm [3]

CCC(=O)N(C)Cc1ccc(-c2noc(C(F)(F)F)n2)s1 [Compound 4.36, N-methyl-N-[[5-[5-(trifluoromethyl)-1,2,4-oxadiazol-3-yl]-2-thienyl]methyl]propanamide]
≥ 80%: pest or weed control at 200 ppm [1] | pest or weed control at 200 ppm [2] | inhibition of growth at 20 ppm [3]

CNS(=O)(=O)N(Cc1ccc(-c2noc(C(F)(F)F)n2)s1)OC [Compound 1.32, 3-[5-[[methoxy(methylsulfamoyl)amino]methyl]-2-thienyl]-5-(trifluoromethyl)-1,2,4-oxadiazole]
≥ 80%: pest or weed control at 200 ppm [1] | pest or weed control at 200 ppm [2] | inhibition of growth at 20 ppm [3]

CCN(Cc1ccc(-c2noc(C(F)(F)F)n2)s1)C(=O)C1CCCO1 (stereo not drawn) [Compound 5.13, N-ethyl-N-[[5-[5-(trifluoromethyl)-1,2,4-oxadiazol-3-yl]-2-thienyl]methyl]tetrahydrofuran-2-carboxamide]
≥ 80%: pest or weed control at 200 ppm [1] | pest or weed control at 200 ppm [2] | inhibition of growth at 20 ppm [3]

CCN(CC)C(=O)N(CC)Cc1ccc(-c2noc(C(F)(F)F)n2)s1 [Compound 4.73, 1,1,3-triethyl-3-[[5-[5-(trifluoromethyl)-1,2,4-oxadiazol-3-yl]-2-thienyl]methyl]urea]
≥ 80%: pest or weed control at 200 ppm [1] | pest or weed control at 200 ppm [2] | inhibition of growth at 20 ppm [3]

CC(=O)NCC(=O)N(Cc1ccc(-c2noc(C(F)(F)F)n2)s1)C1CC1 [Compound 4.53, 2-acetamido-N-cyclopropyl-N-[[5-[5-(trifluoromethyl)-1,2,4-oxadiazol-3-yl]-2-thienyl]methyl]acetamide]
≥ 80%: pest or weed control at 200 ppm [1] | pest or weed control at 200 ppm [2] | inhibition of growth at 20 ppm [3]

CC(C)N(Cc1ccc(-c2noc(C(F)(F)F)n2)s1)C(=O)NC1CC1 [Compound 5.59, 3-cyclopropyl-1-isopropyl-1-[[5-[5-(trifluoromethyl)-1,2,4-oxadiazol-3-yl]-2-thienyl]methyl]urea]
≥ 80%: pest or weed control at 200 ppm [1] | pest or weed control at 200 ppm [2] | inhibition of growth at 20 ppm [3]

COC(C)C(=O)N(Cc1ccc(-c2noc(C(F)(F)F)n2)s1)C1CC1 (stereo not drawn) [Compound 4.14, N-cyclopropyl-2-methoxy-N-[[5-[5-(trifluoromethyl)-1,2,4-oxadiazol-3-yl]-2-thienyl]methyl]propanamide]
≥ 80%: pest or weed control at 200 ppm [1] | pest or weed control at 200 ppm [2] | inhibition of growth at 20 ppm [3]

CN(Cc1ccc(-c2noc(C(F)(F)F)n2)s1)C(=O)C1CCCO1 (stereo not drawn) [Compound 5.22, N-methyl-N-[[5-[5-(trifluoromethyl)-1,2,4-oxadiazol-3-yl]-2-thienyl]methyl]tetrahydrofuran-2-carboxamide]
≥ 80%: pest or weed control at 200 ppm [1] | pest or weed control at 200 ppm [2] | inhibition of growth at 20 ppm [3]

CCC(=O)C(=O)N(CC)Cc1ccc(-c2noc(C(F)(F)F)n2)s1 [Compound 6.42, N-ethyl-2-oxo-N-[[5-[5-(trifluoromethyl)-1,2,4-oxadiazol-3-yl]-2-thienyl]methyl]butanamide]
≥ 80%: pest or weed control at 200 ppm [1] | pest or weed control at 200 ppm [2] | inhibition of growth at 20 ppm [3]

CCN(Cc1ccc(-c2noc(C(F)(F)F)n2)s1)C(=O)C(C)=O [Compound 6.6, N-ethyl-2-oxo-N-[[5-[5-(trifluoromethyl)-1,2,4-oxadiazol-3-yl]-2-thienyl]methyl]propanamide]
≥ 80%: pest or weed control at 200 ppm [1] | pest or weed control at 200 ppm [2] | inhibition of growth at 20 ppm [3]

O=C(C1CCCO1)N(Cc1ccc(-c2noc(C(F)(F)F)n2)s1)C1CC1 (stereo not drawn) [Compound 5.40, N-cyclopropyl-N-[[5-[5-(trifluoromethyl)-1,2,4-oxadiazol-3-yl]-2-thienyl]methyl]tetrahydrofuran-2-carboxamide]
≥ 80%: pest or weed control at 200 ppm [1] | pest or weed control at 200 ppm [2] | inhibition of growth at 20 ppm [3]

CCONC(=O)N(Cc1ccc(-c2noc(C(F)(F)F)n2)s1)OC [Compound 1.55, 3-ethoxy-1-methoxy-1-[[5-[5-(trifluoromethyl)-1,2,4-oxadiazol-3-yl]-2-thienyl]methyl]urea]
≥ 80%: pest or weed control at 200 ppm [1] | pest or weed control at 200 ppm [2] | inhibition of growth at 20 ppm [3]

CN(Cc1ccc(-c2noc(C(F)(F)F)n2)s1)C(=O)C(=O)c1ccccc1 [Compound 6.47, N-methyl-2-oxo-2-phenyl-N-[[5-[5-(trifluoromethyl)-1,2,4-oxadiazol-3-yl]-2-thienyl]methyl]acetamide]
≥ 80%: pest or weed control at 200 ppm [1] | pest or weed control at 200 ppm [2] | inhibition of growth at 20 ppm [3]

CCN(Cc1ccc(-c2noc(C(F)(F)F)n2)s1)C(=O)C1(C)CC1 [Compound 5.12, N-ethyl-1-methyl-N-[[5-[5-(trifluoromethyl)-1,2,4-oxadiazol-3-yl]-2-thienyl]methyl]cyclopropanecarboxamide]
≥ 80%: pest or weed control at 200 ppm [1] | pest or weed control at 200 ppm [2] | inhibition of growth at 20 ppm [3]

CN(Cc1ccc(-c2noc(C(F)(F)F)n2)s1)C(=O)CC#N [Compound 4.39, 2-cyano-N-methyl-N-[[5[5-(trifluoromethyl)-1,2,4-oxadiazol-3-yl]-2-thienyl]methyl]acetamide]
≥ 80%: pest or weed control at 200 ppm [1] | pest or weed control at 200 ppm [2] | inhibition of growth at 20 ppm [3]
